The test addresses T1, 17β-hydroxysteroid dehydrogenase type 1 (17β-HSD1) (Homo sapiens, UniProt P14061).
T1 construct: gene HSD17B1
T1 sequence (P14061 2-328): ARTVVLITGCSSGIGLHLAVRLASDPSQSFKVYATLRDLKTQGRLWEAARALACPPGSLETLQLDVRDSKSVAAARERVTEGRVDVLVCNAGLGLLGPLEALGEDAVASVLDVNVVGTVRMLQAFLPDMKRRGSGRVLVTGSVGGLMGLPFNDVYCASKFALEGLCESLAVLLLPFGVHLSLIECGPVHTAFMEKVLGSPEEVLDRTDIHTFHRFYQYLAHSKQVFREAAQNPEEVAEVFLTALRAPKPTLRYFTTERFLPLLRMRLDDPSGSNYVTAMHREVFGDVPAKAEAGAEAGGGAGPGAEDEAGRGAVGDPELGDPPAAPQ
Briefly: inhibition of […]-DHEA to […]-5-diol conversion in intact T-47D cells (endogenous […]β-HSD1), TLC. The test is classed as cell-based.

This passage reports IC50 results from paper PMC8069897, “A Targeted-Covalent Inhibitor of 17β-HSD1 Blocks Two Estrogen-Biosynthesis Pathways: In Vitro (Metabolism) and In Vivo (Xenograft) Studies in T-47D Breast Cancer Models” (Cancers, 2021).

For orientation: IC50 means the concentration that inhibits the measured activity by half. High values mean weaker potency in that assay, low ones greater potency in that assay. `C[C@]12CC[C@@H]3c4ccc(CCBr)cc4CC[C@H]3[C@@H]1C[C@H](Cc1cccc(C(N)=O)c1)[C@@H]2O` [PBRM]: the IC50 is 770 nM.
